# Entries after “also recorded” stand apart in the source; their conditions may differ. Like-named read-outs stand apart in the source and are kept apart here.
# Legend:
# [1] = test system: human Liver-Chip (primary human hepatocytes); assay: Liver-Chip albumin production in top channel effluent (ELISA); assay type: cell-based; conditions: for Albumin change in words: Liver-Chip effluent
# [2] = test system: 3D spheroid cultures of primary human hepatocytes; conditions: cited from earlier work; for Spheroid false negative: Yes/No, also No for drugs not tested in spheroid; for Spheroid MOS: 3D hepatic spheroids, previously published data; for Toxicity detection in 3D hepatic spheroids: threshold 50
# [3] = cited from earlier work
# human Liver-Chip = assay: Liver-Chip DILI prediction: minimum toxic concentration and margin of safety (MOS)-like figure; conditions: for Chip MOS donor 1 / Chip MOS both donors / Chip MOS donor 2: free IC50 concentration in the assay divided by total concentration of drug in human plasma at Cmax; for Liver-Chip toxicity determination, MOS-like figure against threshold value of 50: not corrected for protein binding, donors one and two;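 as to Chip MOS both donors: Toxic concentration is the lowest across albumin IC50 and ALT and morphology endpoints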;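 as to Chip MOS donor 1: Toxic concentration is the lowest across albumin IC50 and ALT and morphology endpoints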;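 as to Chip MOS donor 2: Toxic concentration is the lowest across albumin IC50 and ALT and morphology endpoints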
# Text: Because the fundamental principles of drug action dictate that free (unbound) drug concentrations drive drug effects, we explored an alternative methodology for calculating the MOS-like values by accounting for protein binding using a previously reported approach. Accordingly, we reanalyzed the findings for the 27 drugs in our study by accounting for protein binding.
# [4] = test system: clinical drug-induced liver injury; conditions: clinical DILI severity category 1 to 5; cited from earlier work
# [5] = test system: human Liver-Chip (hepatocytes and non-parenchymal cells)
# How it was run: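 Brightfield images over three fields of view on days 1, 3 and 7 of each cycle, scored 0–4 by two blinded scorers for cytotoxicity in the hepatocyte (top) and non-parenchymal cell (bottom) channels. Scores reflect monolayer integrity, junction loss, cytoplasmic granulation, debris agglomeration and percentage dead cells.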
# [6] = cited from earlier work; remark: listed apart in the source
# [7] = expanded drug list, lowest multiplier causing a 50% reduction in albumin production
# [8] = expanded drug list, lowest concentration causing an increase in morphology score, donor 1
# [9] = human, total plasma Cmax, ref Xu, J. J. et al. (36)
# [10] = human, total plasma Cmax, reference data from the literature, no reference
# [11] = concentration causing a 50% reduction in albumin production
Structure (SMILES),"Albumin IC50 Donor 1 [1, 7]",Spheroid false negative [2],Chip MOS donor 1 (human Liver-Chip),Garside DILI rank [4],"Expected Fraction Unbound in Plasma ([6]; plasma, ref Lau, S.W.J. (65))",Spheroid MOS [2],"Human Cmax Total [3, 9]",Chip MOS both donors (human Liver-Chip),Chip MOS donor 2 (human Liver-Chip),Morphology Donor 1 ([5]; human),Morphology Donor 2 ([5]; human),other results
O=C(NC1CCN(CCCCC2(C(=O)NCC(F)(F)F)c3ccccc3-c3ccccc32)CC1)c1ccccc1-c1ccc(C(F)(F)F)cc1 [Lomitapide],4 unbound human Cmax multiplier,No,0,3,0.002,,,,,,,"Human Cmax Total ([3]; human, total plasma Cmax, ref Dawson, S., Stahl, Paul, N., Barber, J. & Kenna, J. G. (71)): 0.0017 µM; Hepatotoxicity in the Liver-Chip, in words (human Liver-Chip; albumin, ALT and morphology endpoints together): highly toxic; Morphology Donor 1 [5, 8]: < 0.1 unbound human Cmax multiplier"
Cc1cn([C@H]2C=C[C@@H](CO)O2)c(=O)[nH]c1=O [Stavudine],> 60 unbound human Cmax multiplier,Yes,247,1,1,>144,3.46 µM,107,107,300 unbound human Cmax multiplier,300 unbound human Cmax multiplier,"Albumin IC50 Donor 2 [1, 7]: 132 unbound human Cmax multiplier; Toxicity detection in 3D hepatic spheroids [2]: not detected as toxic drugs in spheroids; Liver-Chip toxicity determination, protein-binding-corrected MOS-like figure, threshold 375 (human Liver-Chip; 18 drugs tested in both donors): detection; Liver-Chip toxicity determination, MOS-like figure against threshold value of 50 (human Liver-Chip): not detected; also recorded: false negative"
Nc1c2c(nc3ccccc13)CCCC2 [Tacrine],,Yes,>12,2,0.25,696,0.1 µM,>12,>12,,,"Albumin change in words [1]: not associated with any release of ALT or decline in albumin; Toxicity detection in 3D hepatic spheroids [2]: not detected as toxic drugs in spheroids; Liver-Chip toxicity determination, MOS-like figure against threshold value of 50 (human Liver-Chip): not detected; Morphology Donor 1 [5, 8]: > 300 unbound human Cmax multiplier; Morphology Donor 2 ([5]; expanded drug list, lowest concentration causing an increase in morphology score, donor 2): > 1000 unbound human Cmax multiplier"
CC[C@H]1OC(=O)[C@H](C)C(=O)[C@H](C)[C@@H](O[C@@H]2O[C@H](C)C[C@H](N(C)C)[C@H]2O)[C@](C)(OC)C[C@@H](C)C(=O)[C@H](C)[C@H]2N(CCCCn3cnc(-c4cccnc4)c3)C(=O)O[C@]12C [Telithromycin],13 unbound human Cmax multiplier,No,6,1,0.4,,,,,100 unbound human Cmax multiplier,,"Albumin change in words [1]: decrease in albumin; Human Cmax Total [3, 10]: 2.79 µM; Morphological injury score change in words [5]: concomitant increase"
Cc1ccc(C(=O)c2cc(O)c(O)c([N+](=O)[O-])c2)cc1 [Tolcapone],,No,0.004,1,0.0012,0.3,,0.004,0.05,,,"Albumin IC50 Donor 1 [1, 11]: 3 multiples of the unbound human Cmax; Albumin IC50 Donor 2 [1, 11]: 39 multiples of the unbound human Cmax; Human Cmax Total [3, 10]: 47.6 µM; Morphology Donor 1 ([5]; lowest concentration causing an increase in cellular morphology score, donor 1): 10 multiples of the unbound human Cmax; Morphology Donor 2 ([5]; lowest concentration causing an increase in cellular morphology score, donor 2): 100 multiples of the unbound human Cmax"
Cc1c(C)c2c(c(C)c1O)CCC(C)(COc1ccc(CC3SC(=O)NC3=O)cc1)O2 (stereo not shown) [Troglitazone],,No,0.03,1,,2.3,6.08 µM,0.03,0.1,300 multiples of the unbound human Cmax,300 multiples of the unbound human Cmax,"Albumin IC50 Donor 1 [1, 11]: 24 multiples of the unbound human Cmax; Albumin IC50 Donor 2 [1, 11]: 122 multiples of the unbound human Cmax; Expected Fraction Unbound in Plasma ([6]; plasma, reference data from the literature, no reference): 0.0011"
CC(c1cc2ccccc2s1)N(O)C(N)=O (stereo not shown) [Zileuton],> 100 unbound human Cmax multiplier,Yes,>7,2,,>7.7,,15,15,> 100 unbound human Cmax multiplier,> 300 unbound human Cmax multiplier,"Albumin IC50 Donor 2 [1, 7]: 210 unbound human Cmax multiplier; Human Cmax Total ([3]; human therapeutic total plasma Cmax from literature, ref Xu, J. J. et al. (36)): 13.1 µM; plasma protein bound [6]: > 93%; Expected Fraction Unbound in Plasma ([6]; human plasma, ref Scott, L. J. (69)): 0.07"

# From article PMC9727064, “Performance assessment and economic analysis of a human Liver-Chip for predictive toxicology” (Communications Medicine, 2022)
